Publication PMC9885526 (ACS Central Science, 2023)

System: SARS-CoV-2 (Omicron variant)
Experiment: microbe, parasite or virus in culture
Assay type: cell-based
Details: Severe acute respiratory syndrome coronavirus 2, Caco-2

CC(C)(C)[C@H](NC(=O)C(F)(F)F)C(=O)N1C[C@H]2[C@@H]([C@H]1C(=O)N[C@H](C#N)C[C@@H]1CCNC1=O)C2(C)C [PF-07321332, Nirmatrelvir]
EC50: 33 nM
